Earlier results, collected in patent publication US8523569B2, “Controlled release local anesthetic for post dental surgery and method of use” (priority 2007, dated 2013).

Conditions: immediate release vasoconstrictor, known to the art

For CNC[C@H](O)c1ccc(O)c(O)c1 [epinephrine], the “prolongation of local anesthetic activity, at best” value is given as no more than 1 h.
